What was measured:
[1] = biological target: T1, D-amino acid oxidase (DAAO; EC 1.4.3.3) (Sus scrofa, UniProt P00371); test: In vitro inhibition of DAAO using the peroxide method; assay type: biochemical; settings: DAAO 2.6 μg/ml, D-Alanine 7.5 mM, 60 minutes at room temperature, absorbance at 492 nm; read-out: H2O2 method pIC50 (converted)
T1 construct: purchased Sigma
Experimental: (§1) D-amino acid oxidase (DAAO; EC 1.4.3.3) catalyzes the oxidation of D-stereo isomers of amino acids.
Two in vitro methods were developed to measure the catalytic activity of DAAO: • 1. The peroxide method: measures the amount of peroxide produced, using an auxiliary enzyme horse radish peroxidase • 2. The keto acid method: measures the ax keto acid formed
The general reaction to determine the amount of peroxide produced by catalytic action of DAAO can be described as: [drawing 36]
DAAO (2.6 μg/ml) is incubated for 60 minutes at room temperature with the substrate D-Alanine (7.5 mM) in 0.019 M sodiumpyrophosphate buffer containing FAD(5.5 μg/ml), HRP (200 μg/ml), DHBS (1667 μg/ml) and 4-aminoantipyrine(500 μg/ml) in a total volume of 50 μl. Compounds were added in a 0.5 μl volume to a final DMSO concentration of 1%. The reaction was terminated by addition of 30 μl of 0.5M phosphate buffer pH 5.0. The quinone-imine dye was detected by measuring the absorbance at 492 nm. All products were purchased from Sigma.

[2] = biological target: T1, D-amino acid oxidase (DAAO; EC 1.4.3.3); test: In vitro inhibition of DAAO using the keto acid method; assay type: biochemical; settings: DAAO 20 μg/ml, D-Alanine 15 mM, 10 min at room temperature, pH 8.3, absorbance at 450 nm; read-out: keto acid method pIC50 (converted)
Experimental: as §1
Two in vitro methods were developed to measure the catalytic activity of DAAO: • 1. The peroxide method: measures the amount of peroxide produced, using an auxiliary enzyme horse radish peroxidase • 2. […]
DAAO (20 μg/ml) is incubated for 10 min at room temperature with the substrate D-Alanine (15 mM) in 0.19 mM pyrophosphatebuffer pH 8.3 containing FAD (11 μg/ml), and bovine liver catalase (EC 1.11.1.6) (4.3 mg/ml) in a total volume of 50 μl. Compounds were added in a 0.5 μl volume to a final DMSO concentration of 1%. The reaction is stopped by adding 25 μl 1 mM […] dinitrophenylhydrazine in 1N HCl, After a second 10 min incubation at room temperature, 175 μl 0.6 N NaOH is added and the formed hydrazone is detected by measuring the absorbance at 450 nm. All products were purchased from Sigma.

T1 sequence (P00371 whole entry): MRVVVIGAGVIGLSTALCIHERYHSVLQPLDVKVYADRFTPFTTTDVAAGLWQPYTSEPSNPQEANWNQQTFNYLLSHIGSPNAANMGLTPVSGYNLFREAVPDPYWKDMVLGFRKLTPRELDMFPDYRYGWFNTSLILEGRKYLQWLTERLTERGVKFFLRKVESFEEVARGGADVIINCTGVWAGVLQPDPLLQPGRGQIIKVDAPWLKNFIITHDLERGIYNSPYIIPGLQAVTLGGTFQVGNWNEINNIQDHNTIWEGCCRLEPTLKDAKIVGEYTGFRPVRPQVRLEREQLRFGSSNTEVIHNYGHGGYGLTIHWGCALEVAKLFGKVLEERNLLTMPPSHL

| Structure (SMILES) | melting point [°C] | IC50 [1] [nM] | IC50 [2] [nM] |
| --- | --- | --- | --- |
| COc1ccc2c(O)noc2c1 | 208 | – | – |
| COc1ccc2c(=O)n(C(=O)NC(C)C)oc2c1 [Compound 1] | 121 | – | – |
| O=C(/N=c1/c2ccccc2on1C(=O)c1ccccc1)c1ccccc1 [Compound 10] | 97 to 100 | – | – |
| Cc1ccc2on(C(=O)NC(C)(C)C)c(=O)c2c1 [Compound 26] | – | 3160 | 2000 |
| CC(C)(C)NC(=O)n1oc2cc(Cl)ccc2c1=O [Compound 27] | – | 50.1 | 200 |
| Cc1ccc2on(C(=O)NC(C)C)c(=O)c2c1 [Compound 28] | – | 3980 | 2000 |
| CC(C)NC(=O)n1oc2ccccc2c1=O [Compound 29] | – | – | 3980 |

Now from value to molecule:

| melting point [°C] | IC50 [1] [nM] | IC50 [2] [nM] | Structure (SMILES) |
| --- | --- | --- | --- |
| – | 631 | 1000 | Cc1onc(-c2c(Cl)cccc2Cl)c1C(=O)Oc1noc2ccc(Cl)cc12 [Compound 17] |
| – | 31.6 | 126 | Cc1cc(C(=O)Oc2noc3cc(Cl)ccc23)no1 [Compound 18] |
| 126 to 128 | 3980 | 5010 | Cc1ccc2onc(OC(=O)c3cc(C)on3)c2c1 [Compound 19] |
| – | 631 | 1000 | Cc1onc(-c2c(Cl)cccc2Cl)c1NC(=O)n1oc2ccc(Cl)cc2c1=O [Compound 21] |
| – | 631 | 794 | CNC(=O)n1oc2ccc(Cl)cc2c1=O [Compound 22] |
| – | 794 | 1000 | CC(C)NC(=O)n1oc2ccc(Cl)cc2c1=O [Compound 23] |
| – | 631 | 794 | CCCNC(=O)n1oc2ccc(Cl)cc2c1=O [Compound 25] |

From patent publication US20070197610A1, “Benzisoxazoles” (Janssen Pharmaceutica N.V., priority 2004, published 2007)
